We go through 43 compounds from patent US20210238139A1, “MODULATORS OF TRYPTOPHAN CATABOLISM” (E-Therapeutics PLC, priority 2018, published 2021).

The assay has as its system SK-OV-3 cells. Put plainly: Effect of compounds on tryptophan catabolism in SK-OV-3 cell line (inhibition of kynurenine production, LC-MS/MS). It is filed as cell-based. The conditions noted are these: Homo sapiens, SK-OV-3, 24 h, read-out: IC50 Ranges (ic50 values for inhibition of Kynurenine production). In a few lines: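 Cells seeded overnight in McCoy's 5A/10% FBS, then switched to DMEM F-12 with 6 mg/mL L-tryptophan; compounds added at 8 3-fold dilutions from 30 μM, in duplicate, 24 h at 37 °C. Supernatant kynurenine measured by LC-MS/MS; ATP-based viability run in parallel; IC50 from % inhibition of Kyn production.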

Setting [1] is: SK-OV-3 cell line, 24 h incubation, kynurenine in supernatant by LC-MS/MS.

Like-named read-outs stand apart in the source and are kept apart here. Where only a bound is given, the exact number is not on record here.

Regarding `Cc1ccc(CN(C(=O)Nc2ccccc2C#N)C2CCCC2)o1` [Compound 95, 3-(2-cyanophenyl)-1-cyclopentyl-1-[(5-methyl-2-furyl)methyl]urea], the 50% inhibitory concentration (IC50) (in general, the midpoint of a concentration-inhibition curve) under setting [1] fell in the range of 1000 to 5000 nM. As to `Cc1ccc(NC(=O)N(Cc2ccc(C)o2)C2CCCC2)cn1` [Compound 246, 1-cyclopentyl-1-[(5-methyl-2-furyl)methyl]-3-(6-methyl-3-pyridyl)urea], the half-maximal inhibitory concentration (IC50) under setting [1] lay in the range of 500 to 1000 nM.

In the case of `O=C(Nc1ccc(Cl)cc1)N(Cc1cn2ccccc2n1)C1CCC1` [Compound 250, 3-(4-chlorophenyl)-1-cyclobutyl-1-(imidazo[1,2-a]pyridin-2-ylmethyl)urea], the IC50 under setting [1] was 1000 to 5000 nM. On to `O=C(NCCc1ccccc1)N(Cc1ccco1)C1CCCC1` [Compound 29, 1-cyclopentyl-1-(2-furylmethyl)-3-(2-phenylethyl)urea], for which the concentration for half-maximal inhibition (IC50) under setting [1] is greater than 5000 nM. For `CCCN(Cc1ccc(C)o1)C(=O)Nc1ccccc1` [Compound 166, 1-[(5-methyl-2-furyl)methyl]-3-phenyl-1-propyl-urea], under setting [1], the IC50 was 500 to 1000 nM. Take `Cc1ccc(CN(C(=O)Nc2ccc(C3CN(C(=O)OC(C)(C)C)C3)cc2)C2CCCC2)o1` [Compound 159, tert-butyl 3-[4-[[cyclopentyl-[(5-methyl-2-furyl)methyl]-carbamoyl]amino]phenyl]azetidine-1-carboxylate]: the half-inhibitory concentration (IC50) is 1000 to 5000 nM.

Take `Cc1ccc(CN(C(=O)Nc2ccc(-c3cnn(C(=O)OC(C)(C)C)c3)cc2)C2CCCC2)o1` [Compound 99, tert-butyl 4-[4-[[cyclopentyl-[(5-methyl-2-furyl)methyl]carbamoyl]amino]phenyl]pyrazole-1-carboxylate]: under setting [1], the 50% inhibitory concentration (IC50) lay in the range of 500 to 1000 nM. Same read-out and setting: next, `Cc1ccc(CN(C(=O)Nc2ccc(C#CCc3ccccc3)cc2)C2CCCC2)o1` [Compound 156, 1-cyclopentyl-1-[(5-methyl-2-furyl)methyl]-3-[4-(3-phenylprop-1-ynyl)phenyl]urea]: 500 to 1000 nM; `Cc1ccc(CN(C(=O)Nc2ccc(C#CCO)cc2)C2CCC2)o1` [Compound 297, 1-cyclobutyl-3-[4-(3-hydroxyprop-1-ynyl)phenyl]-1-[(5-methyl-2-furyl)methyl]urea]: less than 100 nM; `Cc1ccc(CN(C(=O)Nc2ccc(-n3cc(CO)nn3)cc2)C2CCCC2)o1` [Compound 164, 1-cyclopentyl-3-[4-[4-(hydroxymethyl)triazol-1-yl]phenyl]-1-[(5-methyl-2-furyl)methyl]urea]: less than 100 nM. On to `O=C(Nc1ccc(Cl)cc1)N(Cc1cnccn1)C1CCCC1` [Compound 71, 3-(4-chlorophenyl)-1-cyclopentyl-1-(pyrazin-2-ylmethyl)urea], for which the concentration for half-maximal inhibition (IC50) under setting [1] fell in the range of 500 to 1000 nM. With `N#Cc1cc(CN(C(=O)NCCc2ccccc2)C2CCCC2)ccc1F` [Compound 51, 1-[(3-cyano-4-fluoro-phenyl)methyl]-1-cyclopentyl-3-(2-phenylethyl)urea], the IC50 under setting [1] was greater than 5000 nM.

Regarding `O=C(Nc1ccc(F)cc1)N(Cc1cnccn1)C1CCCC1` [Compound 70, 1-cyclopentyl-3-(4-fluorophenyl)-1-(pyrazin-2-ylmethyl)urea], the IC50 under setting [1] is greater than 5000 nM. `O=C(NC1CCCCC1)N(Cc1cccs1)C1CCCC1` [Compound 12, 3-cyclohexyl-1-cyclopentyl-1-(2-thienylmethyl) urea]: the 50% inhibitory concentration (IC50) under setting [1] lay in the range of 1000 to 5000 nM. As to `Cc1nocc1N(CC1CCC2(CC1)COC2)C(=O)Nc1ccc(C#N)cc1` [Compound 325, 3-(4-cyanophenyl)-(3-methylisoxazol-4-yl)-1-(2-oxaspiro[3.5]nonan-7-ylmethyl)urea], the concentration for half-maximal inhibition (IC50) under setting [1] is greater than 5000 nM. `Cc1ccc(CN(C(=O)Nc2ccc(Cl)cc2)c2cnn(C)c2)o1` [Compound 225, 3-(4-chlorophenyl)-1-[(5-methyl-2-furyl)methyl]-1-(1-methylpyrazol-4-yl)urea]: under setting [1], the concentration for half-maximal inhibition (IC50) is 100 to 500 nM. As to `O=C(NCCc1ccccc1)N(Cc1cccs1)C1CCCC1` [Compound 1, 1-cyclopentyl-3-(2-phenylethyl)-1-(2-thienylmethyl)urea], under setting [1], the IC50 lay within 1000 to 5000 nM. As to `N#Cc1ccc(CN(C(=O)Nc2ccccc2)C2CCCC2)o1` [Compound 60, 1-[(5-cyano-2-furyl)methyl]-1-cyclopentyl-3-phenyl-urea], the IC50 under setting [1] lay within 500 to 1000 nM. Still for that read-out and setting: the result for `Cc1ccc(CN(C(=O)Nc2ccc(Cl)cc2)C2CCCC2(F)F)o1` (stereo not shown) [Compound 206, 3-(4-chlorophenyl)-1-(2,2-difluorocyclopentyl)-1-[(5-methyl-2-furyl)methyl]urea] reads less than 100 nM; that for `C#Cc1ccc(NC(=O)N(Cc2cc3ccccc3o2)C2CCCC2)cc1` [Compound 131, 1-(benzofuran-2-ylmethyl)-1-cyclopentyl-3-(4-ethynylphenyl)urea], less than 100 nM.

`O=C(Nc1ccc(Cl)cc1)N(Cc1ccon1)C1CCCC1` [Compound 149, 3-(4-chlorophenyl)-1-cyclopentyl-1-(isoxazol-3-ylmethyl)urea]: under setting [1], the IC50 lay within 500 to 1000 nM. On to `O=C(Nc1ccc(F)cc1)N(Cc1ccccn1)C1CCCC1` [Compound 68, 1-cyclopentyl-3-(4-fluorophenyl)-1-(2-pyridylmethyl)urea], for which the half-inhibitory concentration (IC50) under setting [1] was 1000 to 5000 nM. Still for that read-out and setting: next, `Cc1ccc(CN(C(=O)Nc2ccc(Cl)cc2)C2CC(F)C2)o1` (stereo not shown) [Compound 222, 3-(4-chlorophenyl)-1-(3-fluorocyclobutyl)-1-[(5-methyl-2-furyl)methyl]urea]: 100 to 500 nM; `Cc1ccc(CN(C(=O)Nc2ccncc2)C2CCCC2)o1` [Compound 81, 1-cyclopentyl-1-[(5-methyl-2-furyl)methyl]-3-(4-pyridyl)urea]: 500 to 1000 nM; `Cc1cn(-c2ccc(NC(=O)N(Cc3ccc(C)o3)C3CCCC3)cc2)nn1` [Compound 320, 1-cyclopentyl-1-[(5-methyl-2-furyl)methyl]-3-[4-(4-methyltriazol-1-yl)phenyl]urea]: 100 to 500 nM.

`Cc1ccc(CN(C(=O)Nc2ccc(C#N)cc2)c2ncccc2C)o1` [Compound 314, 3-(4-cyanophenyl) [(5-methyl-2-furyl)methyl]-1-(3-methyl-2-pyridyl)urea]: the IC50 under setting [1] is 100 to 500 nM. On to `O=C(Nc1ccc(Cl)cc1)N(Cc1ccn2ccnc2n1)C1CCC1` [Compound 275, 3-(4-chlorophenyl)-1-cyclobutyl-1-(imidazo[1,2-a]pyrimidin-7-ylmethyl)urea], for which the half-maximal inhibitory concentration (IC50) under setting [1] lay in the range of 1000 to 5000 nM. Same read-out and setting: the result for `O=C(Nc1ccc(F)cc1)N(Cc1cccs1)C1CCCC1` [Compound 34, 1-cyclopentyl-3-(4-fluorophenyl)-1-(2-thienylmethyl)urea] reads 100 to 500 nM; that for `Cc1ccc(CN(C(=O)Nc2ccc(C#N)cc2)c2cnnn2C)o1` [Compound 268, 3-(4-cyanophenyl)-1-[(5-methyl-2-furyl)methyl]-1-(3-methyltriazol-4-yl)urea], 500 to 1000 nM; that for `O=C(Nc1ccccc1)N(Cc1cccs1)c1ccc(Cl)cc1` [Compound 196, 1-(4-chlorophenyl)-3-phenyl-1-(2-thienylmethyl)urea], 1000 to 5000 nM. For the compound `CC(=O)N1CCC(C)(CN(C(=O)Nc2ccccc2)C2CCCC2)CC1` [Compound 97, 1-[(1-acetyl-4-methyl-4-piperidyl)methyl]-1-cyclopentyl-3-phenyl-urea], under setting [1], the half-maximal inhibitory concentration (IC50) is 1000 to 5000 nM. With `Cc1ccc(CN(C(=O)Nc2ccc(C#N)cc2)C2CCCC2C#N)o1` (stereo not shown) [Compound 219, 1-(2-cyanocyclopentyl)-3-(4-cyanophenyl)-1-[(5-methyl-2-furyl)methyl]urea], the half-maximal inhibitory concentration (IC50) under setting [1] fell in the range of 100 to 500 nM. On to `Cn1ncc(CN(C(=O)Nc2ccc(F)cc2)C2CCCC2)c1Cl` [Compound 44, 1-[(5-chloro-1-methyl-pyrazol-4-yl)methyl]-1-cyclopentyl-3-(4-fluorophenyl) urea], for which, under setting [1], the IC50 was in the range of 500 to 1000 nM. For the compound `O=C(Nc1ccc(F)cc1)N(Cc1cnoc1)C1CCCC1` [Compound 62, 1-cyclopentyl-3-(4-fluorophenyl)-1-(isoxazol-4-ylmethyl)urea], the 50% inhibitory concentration (IC50) under setting [1] was greater than 5000 nM. On to `C#Cc1ccc(NC(=O)N(Cc2ccc(C)o2)C2CCOCC2)cc1` [Compound 259, 3-(4-ethynylphenyl)-1-[(5-methyl-2-furyl)methyl]-1-tetrahydropyran-4-yl-urea], for which the IC50 under setting [1] lay in the range of 100 to 500 nM. On the same count and under the same terms, the result for `COc1cc(NC(=O)N(Cc2ccc(C)o2)C2CCCC2)ccc1-n1cc(CO)nn1` [Compound 323, 1-cyclopentyl-[4-[4-(hydroxymethyl)triazol-1-yl]-3-methoxy-phenyl]-1-[(5-methyl-2-furyl)methyl]urea] reads 100 to 500 nM; that for `CCc1ccc(NC(=O)N(Cc2cnn(C)c2Cl)C2CCCC2)cc1` [Compound 42, 1-[(5-chloro-1-methyl-pyrazol-4-yl)methyl]-1-cyclopentyl-3-(4-ethylphenyl)urea], 100 to 500 nM. As for `Cc1ccc(CN(C(=O)Nc2ccc(Cl)cc2)[C@H]2C[C@H](F)C2)o1` [Compound 273, 3-(4-chlorophenyl)-1-(3-fluorocyclobutyl)-1-[(5-methyl-2-furyl)methyl]urea], under setting [1], the IC50 is 100 to 500 nM. With `O=C(Nc1ccc(Cl)cc1)N(Cc1ccncc1)C1CCCC1` [Compound 76, 3-(4-chlorophenyl)-1-cyclopentyl-1-(4-pyridylmethyl)urea], the IC50 under setting [1] lay within 500 to 1000 nM. For `CC(c1cccc(C#N)c1)N(C(=O)Nc1ccc(Cl)cc1)C1CCC1` (racemic) [Compound 192, 3-(4-chlorophenyl)-1-[1-(3-cyanophenyl)ethyl]-1-cyclobutyl-urea], the IC50 under setting [1] was less than 100 nM. `O=C(Nc1cccc(F)c1)N(Cc1cccs1)C1CCCC1` [Compound 55, 1-cyclopentyl-3-(3-fluorophenyl)-1-(2-thienylmethyl)urea]: under setting [1], the concentration for half-maximal inhibition (IC50) lay within 500 to 1000 nM. Regarding `O=C(Nc1ccc(F)c(F)c1)N(Cc1cccc(OC(F)(F)F)c1)C1CCCC1` [Compound 142, 1-cyclopentyl-3-(3,4-difluorophenyl)-1-[[3 (trifluoromethoxy)phenyl]methyl]urea], the half-maximal inhibitory concentration (IC50) under setting [1] was 1000 to 5000 nM. For `Cc1ccc(CN(C(=O)Nc2ccccc2)C2CCC2)o1` [Compound 178, 1-cyclobutyl-1-[(5-methyl-2-furyl)methyl]-3-phenyl-urea], under setting [1], the IC50 lay within 1000 to 5000 nM.
